Common to all, as to assay: inhibition of tumour cell growth, NCI panel, 48 h
For experiment [1], the system named is SK-MEL-28 melanoma.
Experiment [2] concerns MDA-MB-231 breast.
The test system of experiment [3] is SF-295 CNS.
Experiment [4] concerns HCT-15 colon.
Experiment [5] concerns ACHN renal.
Experiment [6] concerns UACC-62 melanoma.
Experiment [7] has as its system UACC-257 melanoma.
In experiment [8] the test system is DU-145 prostate.
The subject of experiment [9] is EKVX NSCLC.
Experiment [10] relates to NCI/ADR-RES ovarian.
Experiment [11] relates to T-47D breast.
Experiment [12] has as its system OVCAR-5 ovarian.

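Interpolation was linear, between the two tested concentrations surrounding the appropriate level; five concentrations were tested over 48 hours in 96-well plates. GI50 = concentration required for 50% inhibition of growth. TGI denotes the concentration required for complete inhibition of growth.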

As to `CCCCCCCCCCCCCCCCCCOc1ccccc1CC(=O)OCC[N+](C)(C)C`, the GI50 in experiment [1] is 1.63 µM; in experiment [2], 1.57 µM; in experiment [3] it was 2.03 µM; in experiment [4], 2.94 µM; in [5], 1.75 µM; in [6], 1.57 µM. In addition, the GI50 in [7] was 2.34 µM; in experiment [8], 1.71 µM; in experiment [9], 2.17 µM; in experiment [10] it was 9.84 µM; in experiment [11], 2.06 µM; in experiment [12], 1.45 µM. For the same compound, the TGI in experiment [1] worked out at 3.57 µM; in experiment [2], 3.21 µM; in [3], 4.52 µM; in [4] it was 11.5 µM; in experiment [5], 3.72 µM; in experiment [6], 3.51 µM. Besides, the TGI is 6.34 µM in experiment [7]; 3.09 µM in experiment [8]; 5.4 µM in experiment [9]; 35.7 µM in [10]; 4.89 µM in experiment [11]; 2.89 µM in experiment [12].

For the origin of these results see PubChem BioAssay (NCI).
